Measured values: paper PMC12511196 (European Journal of Clinical Pharmacology, 2025)

Experiments:
CYP2D6 = conditions: cited from earlier work
[1] = Treatment switch from fluoxetine to an alternative antidepressant (proxy for therapeutic failure) by CYP2D6 phenotype; type: in vivo, human; conditions: adult patients; for Switch to alternative antidepressant, Frequency (%): within one year after last fluoxetine measurement
From the text: Consequently, an antidepressant switch was used as a proxy marker for therapeutic failure, regardless of the cause.
IBM SPSS Statistics version 28.0.1.1 (SPSS Inc, Chicago, IL) was used for statistical analysis and graphical presentations. Continuous variables were reported as median (range). The associations between CYP2D6 phenotype and pharmacokinetic measures such as absolute concentrations, C/D ratios and metabolic ratios were examined using Kruskal–Wallis test followed by Bonferroni-corrected Dunn’s test using CYP2D6 NMs as reference group. […] A p value below 0.05 was considered statistically significant.

[2] = cited from earlier work
[3] = cited from earlier work; remark: listed apart in the source
serotonin reuptake = conditions: cited from earlier work

## CNCCC(Oc1ccc(C(F)(F)F)cc1)c1ccccc1 (stereo not drawn) [fluoxetine]
CYP2D6
  Type of CYP2D6 inhibition: competitive and reversible inhibitors
[1]; CYP2D6 IMs (n = 347)
  Switch to alternative antidepressant where genotyping was not performed within the switch period, Frequency (%): 6.3%
  Switch to alternative antidepressant, Frequency (%): 8.6%
[1]; CYP2D6 NMs (n = 587)
  Switch to alternative antidepressant where genotyping was not performed within the switch period, Frequency (%): 6.6%
  Switch to alternative antidepressant, Frequency (%): 8.3%
[1]; CYP2D6 PMs (n = 68)
  Switch to alternative antidepressant where genotyping was not performed within the switch period, Frequency (%): 10.3%
  Switch to alternative antidepressant, Frequency (%): 19.1%
[1]; CYP2D6 UMs (n = 25)
  Switch to alternative antidepressant where genotyping was not performed within the switch period, Frequency (%): 12.0%
  Switch to alternative antidepressant, Frequency (%): 24.0%
[1]; Total (n = 1027)
  Switch to alternative antidepressant where genotyping was not performed within the switch period, Frequency (%): 6.9%
  Switch to alternative antidepressant, Frequency (%): 9.5%
[2]
  Elimination half-life: one to four
[3]
  Distribution to the brain: more distributed to the brain than norfluoxetine

## NCCC(Oc1ccc(C(F)(F)F)cc1)c1ccccc1 (stereo not drawn) [norfluoxetine]
CYP2D6
  Type of CYP2D6 inhibition: competitive and reversible inhibitors

## NCC[C@H](Oc1ccc(C(F)(F)F)cc1)c1ccccc1 [S-norfluoxetine]
Serotonin reuptake
  Potency as SSRI relative to R-norfluoxetine: approximately 20 times
